Values of other authors as cited in patent US20200069728A1, “HYPOCHLOROUS ACID BASED EYE DROP AND OPHTHALMIC COMPOSITION” (priority 2018, published 2020).

Settings: non-stabilized hypochlorous acid, background statement

potency lost per day: 1-2%
SMILES: OCl [hypochlorous acid]
